Assay [1] has as its system T24 cells. Nature of the assay: Cell migration scratch assay. Format: cell-based, human. The conditions noted are these: sub-lethal: CBD 10, CBC+THC 8.6+1.4, MMC 4, CBC 10, THC 10 μg/mL; vs control. Here is the method:
The scratch area, indicated by the cells that migrated to the scratch at time x, was calculated as the percentage of the scratch area at time x from time 0: […]

Assay [2] relates to T24 cells. Nature of the assay: Bliss independence drug interaction model on T24 cell viability. Format: cell-based, human. The conditions noted are these: for inhibition at 1 µg/mL / inhibition at 2 µg/mL / inhibition at 3 µg/mL / inhibition at 5 µg/mL / inhibition at 7.5 µg/mL / inhibition at 10 µg/mL / inhibition at 12.5 µg/mL: Homo sapiens, T-24. Here is the method:
Cell proliferation assay—XTT assay was carried out as described in [34], on T24 and HTB-9 cells. 1*10^4 cells/well were seeded in 96-wells plates, methanol was used as a vehicle control at the same concentration as the treatments. Mitomycin-C (MMC) was used as positive control. Cell viability was calculated relative to the vehicle control after subtracting blank.
Analysis of combined drug effects—Drug synergy was determined by the Bliss independence drug interaction model as described in [31], on T24 cells.

Like-named read-outs stand apart in the source and are kept apart here.

By inhibition is commonly meant the drop in the measured response relative to a control, in per cent.

Consider `CCCCCc1cc(O)c2c(c1)OC(C)(CCC=C(C)C)C=C2` (centres unmarked) [CBC, Cannabichromene], for which the “cell migration into the scratch” value in assay [1] is “reduced cell migration to a lesser extent than treatment with CBC+THC”. The “Calculated (expected) value of cell survival inhibition” value is recorded as −0.2617 in assay [2] (CBC 3.5 + THC 0 μg/ml); 0.003989 in assay [2] (CBC 5.5 + THC 0 μg/ml); −0.05563 in assay [2] (CBC 7.5 + THC 0 μg/ml); −0.061 in assay [2] (CBC 9.5 + THC 0 μg/ml); 0.2028 in assay [2] (CBC 11.5 + THC 0 μg/ml); 0.5088 in assay [2] (CBC 13.5 + THC 0 μg/ml). Further, the “Delta between observed and experimental values calculated according to Bliss model” value in assay [2] (CBC 3.5 + THC 0 μg/ml) is listed as 1.26E−10; in assay [2] (CBC 5.5 + THC 0 μg/ml) it was 9.96E−11; in assay [2] (CBC 7.5 + THC 0 μg/ml), 1.06E−10; in assay [2] (CBC 9.5 + THC 0 μg/ml), 1.06E−10; in assay [2] (CBC 11.5 + THC 0 μg/ml) it was 7.97E−11; in assay [2] (CBC 13.5 + THC 0 μg/ml), 4.91E−11. Further, the “Experimental (observed) value of cell survival inhibition” value is −0.2617 in assay [2] (CBC 3.5 + THC 0 μg/ml); 0.003989 in assay [2] (CBC 5.5 + THC 0 μg/ml); −0.05563 in assay [2] (CBC 7.5 + THC 0 μg/ml); −0.061 in assay [2] (CBC 9.5 + THC 0 μg/ml); 0.2028 in assay [2] (CBC 11.5 + THC 0 μg/ml); 0.5088 in assay [2] (CBC 13.5 + THC 0 μg/ml).
Consider `CCCCCc1cc(O)c2c(c1)OC(C)(C)[C@@H]1CCC(C)=C[C@@H]21` [THC, Tetrahydrocannabinol], for which the “cell migration into the scratch” value in assay [1] is “had no effect on cell migration”. The “Delta between observed and experimental values calculated according to Bliss model” value in assay [2] (CBC 0 + THC 1 μg/ml), in assay [2] (CBC 0 + THC 2 μg/ml), in assay [2] (CBC 0 + THC 3 μg/ml), in assay [2] (CBC 0 + THC 5 μg/ml), in assay [2] (CBC 0 + THC 7.5 μg/ml) and in assay [2] (CBC 0 + THC 10 μg/ml) was 0 each time. The “Delta between observed and experimental values calculated according to Bliss model” value in assay [2] (CBC 0 + THC 12.5 μg/ml) was 0. Moreover, the inhibition at 1 µg/mL in assay [2] (CBC 0 + THC 1 μg/ml, read-out: Calculated (expected) value of cell survival inhibition) was -1.14%; in assay [2] (CBC 0 + THC 1 μg/ml, read-out: Experimental (observed) value of cell survival inhibition), -1.14%. Further, the inhibition at 2 µg/mL in assay [2] (CBC 0 + THC 2 μg/ml, read-out: Calculated (expected) value of cell survival inhibition) is -3.21%; in assay [2] (CBC 0 + THC 2 μg/ml, read-out: Experimental (observed) value of cell survival inhibition), -3.21%. For the same molecule, the inhibition at 3 µg/mL was -1.37% in assay [2] (CBC 0 + THC 3 μg/ml, read-out: Calculated (expected) value of cell survival inhibition) and -1.37% in assay [2] (CBC 0 + THC 3 μg/ml, read-out: Experimental (observed) value of cell survival inhibition). Moreover, the inhibition at 5 µg/mL was 4.88% in assay [2] (CBC 0 + THC 5 μg/ml, read-out: Calculated (expected) value of cell survival inhibition) and 4.88% in assay [2] (CBC 0 + THC 5 μg/ml, read-out: Experimental (observed) value of cell survival inhibition). Also, the inhibition at 7.5 µg/mL in assay [2] (CBC 0 + THC 7.5 μg/ml, read-out: Calculated (expected) value of cell survival inhibition) was -1.83%; in assay [2] (CBC 0 + THC 7.5 μg/ml, read-out: Experimental (observed) value of cell survival inhibition), -1.83%. Moreover, the inhibition at 10 µg/mL was 4.23% in assay [2] (CBC 0 + THC 10 μg/ml, read-out: Calculated (expected) value of cell survival inhibition) and 4.23% in assay [2] (CBC 0 + THC 10 μg/ml, read-out: Experimental (observed) value of cell survival inhibition). Moreover, the inhibition at 12.5 µg/mL in assay [2] (CBC 0 + THC 12.5 μg/ml, read-out: Calculated (expected) value of cell survival inhibition) is 27%; in assay [2] (CBC 0 + THC 12.5 μg/ml, read-out: Experimental (observed) value of cell survival inhibition), 27%.
